This passage reports IC50 results from ChEMBL document CHEMBL5113459 (Bioorg Med Chem Lett, 2022).

Common to all, as to format: functional, cell-based
Assay [1] has as its system DU-145. The assay can be described thus: Antiproliferative activity against human AR-negative DU-145 cells assessed as cell growth inhibition incubated for 3 days by WST-1 assay. As to conditions: DU-145, 72 h. A general note: Tetrazolium assays rely on reduction of a dye to a coloured formazan, in cell work by metabolically active cells.
Assay [2] relates to PC-3. The assay can be described thus: Antiproliferative activity against human AR-negative PC-3 cells assessed as cell growth inhibition incubated for 3 days by WST-1 assay. Particulars: PC-3, 72 h.
The test system of assay [3] is LNCaP. The assay can be described thus: Antiproliferative activity against human AR-positive LNCaP cells assessed as cell growth inhibition incubated for 3 days by WST-1 assay. As to conditions: 72 h.
Assay [4] concerns CWR22R. The assay can be described thus: Antiproliferative activity against human AR-positive 22Rv1 cells assessed as cell growth inhibition incubated for 3 days by WST-1 assay. Particulars: 22Rv1, 72 h.

Some results are limits rather than exact numbers.

As usually defined, the IC50 is the concentration needed to halve the response being measured. Regarding `Cc1ncsc1-c1ccc(CNC(=O)[C@@H]2C[C@@H](O)CN2C(=O)[C@@H](NC(=O)COCCOCCOc2ccc(Cl)cc2C(=O)Nc2ccc([N+](=O)[O-])cc2Cl)C(C)(C)C)cc1`, the half-inhibitory concentration (IC50) in assay [1] was greater than 10 µM; in assay [2], 2.34 µM; in assay [3], 2.37 µM; in assay [4], 4.94 µM.

With `C#CCCOc1ccc(Cl)cc1C(=O)Nc1ccc([N+](=O)[O-])cc1Cl`, the IC50 in assay [1], in assay [2], in assay [3] and in assay [4] was greater than 10 µM each time.

For `O=C(O)COCCOCCOc1ccc(Cl)cc1C(=O)Nc1ccc([N+](=O)[O-])cc1Cl`, the concentration for half-maximal inhibition (IC50) in assay [1], in assay [2], in assay [3] and in assay [4] was greater than 10 µM each time.

Regarding `CC(C)(C)OC(=O)COCCOCCN=[N+]=[N-]`, the half-maximal inhibitory concentration (IC50) in assay [1], in assay [2], in assay [3] and in assay [4] was greater than 10 µM throughout.

`CC(C)(C)OC(=O)COCCOCCn1cc(CCOc2ccc(Cl)cc2C(=O)Nc2ccc([N+](=O)[O-])cc2Cl)nn1`: the half-maximal inhibitory concentration (IC50) is greater than 10 µM in assay [1], greater than 10 µM in assay [2], 3.08 µM in assay [3] and greater than 10 µM in assay [4].

For the compound `Cc1ncsc1-c1ccc(CNC(=O)[C@@H]2C[C@@H](O)CN2C(=O)[C@@H](NC(=O)COCCOCCn2cc(CCOc3ccc(Cl)cc3C(=O)Nc3ccc([N+](=O)[O-])cc3Cl)nn2)C(C)(C)C)cc1`, the 50% inhibitory concentration (IC50) was greater than 10 µM in assay [1], 2.79 µM in assay [2], 1.04 µM in assay [3] and 6.88 µM in assay [4].

Consider `O=C(O)COCCOCCn1cc(CCOc2ccc(Cl)cc2C(=O)Nc2ccc([N+](=O)[O-])cc2Cl)nn1`, for which the half-inhibitory concentration (IC50) in assay [1], in assay [2], in assay [3] and in assay [4] was greater than 10 µM in each case.

Take `O=C(Nc1ccc([N+](=O)[O-])cc1Cl)c1cc(Cl)ccc1O` [NICLOSAMIDE]: the concentration for half-maximal inhibition (IC50) is 3.65 µM in assay [1], 1.92 µM in assay [2], 0.8 µM in assay [3] and 1.61 µM in assay [4].
